From US10144742B2 (Millennium Pharmaceuticals, Inc., priority 2014, dated 2018) come the findings set out here.

SMILES strings stand for the structures.

The target of assay [1] is hNAMPT protein (Homo sapiens (Human), UniProt P43490). Description: NAMPT enzyme assay (TR-FRET/HTRF, BodiPY ligand, anti 6His-Tb). The assay is classed as binding. As to conditions: for inhibition at 1 µM: NAMPT inhibition at compound concentration 1 μM, read-out: Percent Inhibition; for IC50: NAMPT inhibition, IC50 range class, read-out: IC50. In a few lines: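 Compound or DMSO was incubated for 1 h at room temperature, protected from light, with BodiPY ligand and hNAMPT labelled by terbium anti-6His antibody. The 520 nm to 486 nm emission ratio after 320 nm excitation gave inhibition versus vehicle, from which concentration-response curves yielded IC50.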
(In general: Time-resolved FRET reads energy transfer from a long-lived donor to a nearby acceptor.)

For assay [2], the system named is PC3 cells. Description: PC3 growth inhibition (Cell-titer glo, 72 hours). The assay is classed as cell-based. As to conditions: Homo sapiens, PC-3; compound concentration 1.667 μM; PC3 cells, 72 hours, Cell-titer glo; read-out: Percent Inhibition (PC3 growth inhibition). In a few lines:
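Compounds in AIM serum-free medium were applied for 72 h at 37 °C, 5% CO2 to PC3 cells plated overnight from RPMI1640 culture. Luminescence after 10 min CellTiter-Glo, normalised to DMSO, gave % viability at 1 μM or 1.667 μM, or GI50/LD50.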

Chain of hNAMPT protein (P43490 whole entry): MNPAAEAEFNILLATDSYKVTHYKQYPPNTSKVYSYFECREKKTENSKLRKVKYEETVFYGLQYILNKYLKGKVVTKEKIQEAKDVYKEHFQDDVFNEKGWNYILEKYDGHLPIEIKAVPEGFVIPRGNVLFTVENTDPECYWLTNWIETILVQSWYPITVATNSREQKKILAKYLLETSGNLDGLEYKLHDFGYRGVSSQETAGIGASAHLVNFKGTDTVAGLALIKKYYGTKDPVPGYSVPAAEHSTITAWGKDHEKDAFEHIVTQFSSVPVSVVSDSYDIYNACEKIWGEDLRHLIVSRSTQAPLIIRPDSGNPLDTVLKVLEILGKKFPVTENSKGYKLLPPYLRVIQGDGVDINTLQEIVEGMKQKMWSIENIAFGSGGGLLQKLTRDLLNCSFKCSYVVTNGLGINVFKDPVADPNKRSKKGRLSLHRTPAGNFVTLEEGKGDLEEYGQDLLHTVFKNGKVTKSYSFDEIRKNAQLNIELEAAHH

As usually defined, the inhibition is the drop in the measured response relative to a control, in per cent. For orientation: IC50 means the concentration that inhibits the measured activity by half. Consider `O=C(NCCCc1ncc[nH]1)c1ccc2nc(OCCc3ccccc3)c(-c3ccc(F)cc3)nc2c1` [Compound I-420, 3-(4-fluorophenyl)-N-[3-(1H-imidazol-2-yl)propyl]-2-(2-phenylethoxy)quinoxaline-6-carboxamide], for which, in assay [1], the inhibition at 1 µM is 97% and the IC50 is under 100 nM. In assay [2], the inhibition at 1.667 µM was determined as 2%.
Consider `CC(C)Oc1nc2ccc(C(=O)NCCCc3ncc[nH]3)cc2nc1-c1cccc(SC(F)(F)F)c1` [Compound I-421, N-[3-(1H-imidazol-2-yl)propyl]-2-isopropoxy-3-{3-[(trifluoromethyl)sulfanyl]phenyl}quinoxaline-6-carboxamide], for which, in assay [1], the inhibition at 1 µM amounted to 78% and the IC50 is 100 to 500 nM. Also, the inhibition at 1.667 µM in assay [2] is 1%.
Taken in the same sequence, the figures for `Cc1cc(-c2nc3cc(C(=O)NCCCc4ncc[nH]4)ccc3nc2-c2ccc(F)cc2)c(C)s1` [Compound I-422, 3-(2,5-dimethyl-3-thienyl)-2-(4-fluorophenyl)-N-[3-(1H-imidazol-2-yl)propyl]quinoxaline-6-carboxamide] were 92%, under 100 nM and 3%.
Consider `CN1CCCC(Oc2nc3ccc(C(=O)NCCCc4ncc[nH]4)cc3nc2-c2ccc(F)cc2)C1` (stereo not drawn) [Compound I-423, 3-(4-fluorophenyl)-N-[3-(1H-imidazol-2-yl)propyl]-2-[(1-methylpiperidin-3-yl)oxy]quinoxaline-6-carboxamide], for which, in assay [1], the inhibition at 1 µM was 88% and the IC50 lay within 100 to 500 nM. Besides, the inhibition at 1.667 µM in assay [2] was 2%.
For `CC(C)Oc1nc2ccc(C(=O)NCCc3cncn3C)cc2nc1-c1ccc(F)cc1` [Compound I-424, 3-(4-fluorophenyl)-2-isopropoxy-N-[2-(1-methyl-1H-imidazol-5-yl)ethyl]quinoxaline-6-carboxamide], in assay [1], the inhibition at 1 µM was 76% and the IC50 fell in the range of 100 to 500 nM. Further, the inhibition at 1.667 µM in assay [2] is 1%.
`C#Cc1cccc(-c2nc3cc(C(=O)NCCCc4ncc[nH]4)ccc3nc2-c2ccc(F)cc2)c1` [Compound I-425, 3-(3-ethynylphenyl)-2-(4-fluorophenyl)-N-[3-(1H-imidazol-2-yl)propyl]quinoxaline-6-carboxamide]: in assay [1], the inhibition at 1 µM was found to be 87% and the IC50 lay in the range of 100 to 500 nM. The inhibition at 1.667 µM in assay [2] amounted to 3%.
Regarding `COc1cc(-c2nc3cc(C(=O)NCc4ccc5nccn5c4)ccc3nc2OC(C)C)ccc1F` [Compound I-426, 3-(4-fluoro-3-methoxyphenyl)-N-(imidazo[1,2-a]pyridin-6-ylmethyl)-2-isopropoxyquinoxaline-6-carboxamide], in assay [1], the inhibition at 1 µM came out at 99% and the IC50 is under 100 nM. Moreover, the inhibition at 1.667 µM in assay [2] came out at 0%.
In the same order, the values of `COC1CC(Oc2nc3ccc(C(=O)NCCCc4ncc[nH]4)cc3nc2-c2ccc(F)cc2)C1` (stereo not drawn) [Compound I-427, 3-(4-fluorophenyl)-N-[3-(1H-imidazol-2-yl)propyl]-2-[(3-methoxycyclobutyl)oxy]quinoxaline-6-carboxamide] are 99%, under 100 nM and 2%.
Take `Cc1cc(C)n(-c2nc3ccc(C(=O)NCCCc4ncc[nH]4)cc3nc2-c2ccc(F)cc2)n1` [Compound I-428, 2-(3,5-dimethyl-1H-pyrazol-1-yl)-3-(4-fluorophenyl)-N-[3-(1H-imidazol-2-yl)propyl]quinoxaline-6-carboxamide]: in assay [1], the inhibition at 1 µM was determined as 71% and the half-inhibitory concentration (IC50) was in the range of 100 to 500 nM. For the same molecule, the inhibition at 1.667 µM in assay [2] is 2%.
Consider `O=C(NCCCc1ncc[nH]1)c1ccc2nc(-c3ccc(F)cc3)c(-c3cn[nH]c3)nc2c1` [Compound I-429, 2-(4-fluorophenyl)-N-[3-(1H-imidazol-2-yl)propyl]-3-(1H-pyrazol-4-yl)quinoxaline-6-carboxamide], for which, in assay [1], the inhibition at 1 µM was found to be 90% and the IC50 lay within 100 to 500 nM. Further, in assay [2], the inhibition at 1.667 µM came out at 76%.
Taken in the same sequence, the figures for `O=C(NCCCc1ncc[nH]1)c1ccc2nc(OC3CCCNC3)c(-c3ccc(F)cc3)nc2c1` (stereo not drawn) [Compound I-430, 3-(4-fluorophenyl)-N-[3-(1H-imidazol-2-yl)propyl]-2-(piperidin-3-yloxy)quinoxaline-6-carboxamide] were 98%, under 100 nM and 3%.
`O=C(NCCCc1ncc[nH]1)c1ccc2nc(-c3ccc(F)cc3)c(-c3ccc(Cl)c(F)c3)nc2c1` [Compound I-431, 3-(4-chloro-3-fluorophenyl)-2-(4-fluorophenyl)-N-[3-(1H-imidazol-2-yl)propyl]quinoxaline-6-carboxamide]: in assay [1], the inhibition at 1 µM came out at 90% and the IC50 fell in the range of 100 to 500 nM. Besides, in assay [2], the inhibition at 1.667 µM stood at 2%.
`O=C(NCCCc1ncc[nH]1)c1ccc2nc(-c3ccc(F)cc3)c(-c3cc(OC(F)(F)F)ccc3Cl)nc2c1` [Compound I-432, 3-[2-chloro-5-(trifluoromethoxy)phenyl]-2-(4-fluorophenyl)-N-[3-(1H-imidazol-2-yl)propyl]quinoxaline-6-carboxamide]: in assay [1], the inhibition at 1 µM came to 79% and the IC50 fell in the range of 100 to 500 nM. Also, in assay [2], the inhibition at 1.667 µM is 2%.
Taken in the same sequence, the figures for `Cc1ccc(-c2nc3cc(C(=O)NCCCc4ncc[nH]4)ccc3nc2-c2ccc(F)cc2)cc1C` [Compound I-433, 3-(3,4-dimethylphenyl)-2-(4-fluorophenyl)-N-[3-(1H-imidazol-2-yl)propyl]quinoxaline-6-carboxamide] were 79%, 100 to 500 nM and 3%.
On to `O=C(NCCCc1ncc[nH]1)c1ccc2nc(-n3cccn3)c(-c3ccc(F)cc3)nc2c1` [Compound I-434, 3-(4-fluorophenyl)-N-[3-(1H-imidazol-2-yl)propyl]-2-(1H-pyrazol-1-yl)quinoxaline-6-carboxamide], for which, in assay [1], the inhibition at 1 µM was determined as 76% and the IC50 is 100 to 500 nM. In addition, the inhibition at 1.667 µM in assay [2] worked out at 3%.
As to `CC(C)Oc1nc2ccc(C(=O)NCCCc3ncc[nH]3)cc2nc1-c1ccc(F)c(Cl)c1` [Compound I-435, 3-(3-chloro-4-fluorophenyl)-N-[3-(1H-imidazol-2-yl)propyl]-2-isopropoxyquinoxaline-6-carboxamide], in assay [1], the inhibition at 1 µM is 93% and the IC50 is under 100 nM. In addition, in assay [2], the inhibition at 1.667 µM turned out to be 0%.
Take `Nc1ccc(CCCNC(=O)c2ccc3nc(N4CCCCC4)c(-c4ccc(F)cc4)nc3c2)cn1` [Compound I-436, N-[3-(6-aminopyridin-3-yl)propyl]-3-(4-fluorophenyl)-2-(piperidin-1-yl)quinoxaline-6-carboxamide]: in assay [1], the inhibition at 1 µM was found to be 83% and the IC50 lay in the range of 100 to 500 nM. The inhibition at 1.667 µM in assay [2] came to 2%.
Take `CCOc1ccc(Cl)c(-c2nc3cc(C(=O)NCCCc4ncc[nH]4)ccc3nc2-c2ccc(F)cc2)c1` [Compound I-437, 3-(2-chloro-5-ethoxyphenyl)-2-(4-fluorophenyl)-N-[3-(1H-imidazol-2-yl)propyl]quinoxaline-6-carboxamide]: in assay [1], the inhibition at 1 µM worked out at 71% and the IC50 was 100 to 500 nM. Further, the inhibition at 1.667 µM in assay [2] worked out at 3%.
